Experimental data taken from publication PMC5218480 (PLoS ONE, 2017).

Tested on: MV-4-11 cells
Assay: Gene expression microarray analysis (Affymetrix PrimeView) and GSEA
Type: cell-based, human
Set-up: RFU PODN (11730768_x_at) / Fold change /veh PODN (11730768_x_at) / RFU LINC00158 (11744669_a_at) / Fold change /veh LINC00158 (11744669_a_at) / RFU DUSP10 (11751237_a_at) / Fold change /veh DUSP10 (11751237_a_at) / RFU ID3 (11757404_x_at) / Fold change /veh ID3 (11757404_x_at) / RFU PLEKHG5 (11737974_s_at) / Fold change /veh PLEKHG5 (11737974_s_at) / RFU LRRC4B (11730491_at) / Fold change /veh LRRC4B (11730491_at) / RFU GIMAP4 (11747438_a_at) / Fold change /veh GIMAP4 (11747438_a_at) / RFU KRT8 (11758183_x_at) / Fold change /veh KRT8 (11758183_x_at) / RFU CNN1 (11734310_a_at) / Fold change /veh CNN1 (11734310_a_at) / RFU VPS37D (11726825_at) / Fold change /veh VPS37D (11726825_at) / RFU C10orf10 (11716522_x_at) / Fold change /veh C10orf10 (11716522_x_at) / RFU KIR2DL2 /// KIR2DL4 /// KIR2DL5A /// KIR2DL5B /// KIR2DS1 /// KIR2DS2 /// KIR2DS3 /// KIR2DS4 /// KIR3DL3 /// KIR3DL3 /// KIR3DS1 (11738374_at) / Fold change /veh KIR2DL2 /// KIR2DL4 /// KIR2DL5A /// KIR2DL5B /// KIR2DS1 /// KIR2DS2 /// KIR2DS3 /// KIR2DS4 /// KIR3DL3 /// KIR3DL3 /// KIR3DS1 (11738374_at) / RFU C1QL1 (11718748_at) / Fold change /veh C1QL1 (11718748_at) / RFU TMPRSS4 (11747572_a_at) / Fold change /veh TMPRSS4 (11747572_a_at) / RFU HAMP (11756126_x_at) / Fold change /veh HAMP (11756126_x_at) / RFU RNFT2 (11725882_a_at) / Fold change /veh RNFT2 (11725882_a_at) / RFU NR4A2 (11747474_a_at) / Fold change /veh NR4A2 (11747474_a_at) / RFU ABCC12 (11746883_a_at) / Fold change /veh ABCC12 (11746883_a_at) / RFU TMEM136 (11760407_x_at) / Fold change /veh TMEM136 (11760407_x_at) / RFU CLDN22 /// WWC2 (11732394_at) / Fold change /veh CLDN22 /// WWC2 (11732394_at) / RFU HLA-DPB1 (11760878_x_at) / Fold change /veh HLA-DPB1 (11760878_x_at) / RFU SPINT1 (11716480_a_at) / Fold change /veh SPINT1 (11716480_a_at) / RFU GAP43 (11754022_s_at) / Fold change /veh GAP43 (11754022_s_at) / RFU A4GNT (11735810_at) / Fold change /veh A4GNT (11735810_at) / RFU PRB3 (11715151_x_at) / Fold change /veh PRB3 (11715151_x_at) / RFU TUBB4B (11761932_at) / Fold change /veh TUBB4B (11761932_at) / RFU CAPN14 (11732068_a_at) / Fold change /veh CAPN14 (11732068_a_at) / RFU TMCC2 (11721928_a_at) / Fold change /veh TMCC2 (11721928_a_at) / RFU IRGQ (11745062_a_at) / Fold change /veh IRGQ (11745062_a_at) / RFU FAM174B (11720279_a_at) / Fold change /veh FAM174B (11720279_a_at) / RFU TMPRSS4 (11748680_a_at) / Fold change /veh TMPRSS4 (11748680_a_at) / RFU FAM212B (11763350_a_at) / Fold change /veh FAM212B (11763350_a_at) / RFU PLEKHG5 (11743358_a_at) / Fold change /veh PLEKHG5 (11743358_a_at) / RFU ZSCAN30 (11745921_a_at) / Fold change /veh ZSCAN30 (11745921_a_at) / RFU CMKLR1 (11741424_a_at) / Fold change /veh CMKLR1 (11741424_a_at) / RFU LOC101060620 /// MAPK8IP1 (11723275_at) / Fold change /veh LOC101060620 /// MAPK8IP1 (11723275_at) / RFU SPTSSB (11747773_x_at) / Fold change /veh SPTSSB (11747773_x_at) / RFU PRSS12 (11739890_at) / Fold change /veh PRSS12 (11739890_at) / RFU BIN1 (11741810_x_at) / Fold change /veh BIN1 (11741810_x_at) / RFU WNT11 (11732464_a_at) / Fold change /veh WNT11 (11732464_a_at) / RFU C10orf10 (11716521_a_at) / Fold change /veh C10orf10 (11716521_a_at) / RFU C5orf56 (11738089_at) / Fold change /veh C5orf56 (11738089_at) / RFU CYB561 (11721691_x_at) / Fold change /veh CYB561 (11721691_x_at) / RFU ANKRD19P (11752326_a_at) / Fold change /veh ANKRD19P (11752326_a_at) / RFU OR2T12 /// OR2T33 /// OR2T8 (11738714_s_at) / Fold change /veh OR2T12 /// OR2T33 /// OR2T8 (11738714_s_at) / RFU VCAN (11748164_a_at) / Fold change /veh VCAN (11748164_a_at) / RFU JSRP1 (11732532_at) / Fold change /veh JSRP1 (11732532_at) / RFU KRTAP10-11 (11738290_x_at) / Fold change /veh KRTAP10-11 (11738290_x_at) / RFU MYO3A (11730013_a_at) / Fold change /veh MYO3A (11730013_a_at) / RFU EBF3 (11725865_a_at) / Fold change /veh EBF3 (11725865_a_at) / RFU CAMK2N1 (11719241_x_at) / Fold change /veh CAMK2N1 (11719241_x_at) / RFU C5orf56 (11738088_a_at) / Fold change /veh C5orf56 (11738088_a_at) / RFU OLFML3 (11715873_a_at) / Fold change /veh OLFML3 (11715873_a_at) / RFU LOC100653217 /// NTM (11731650_a_at) / Fold change /veh LOC100653217 /// NTM (11731650_a_at) / RFU MAPK11 (11762145_a_at) / Fold change /veh MAPK11 (11762145_a_at) / RFU FIZ1 (11724087_x_at) / Fold change /veh FIZ1 (11724087_x_at) / RFU OASL (11726364_x_at) / Fold change /veh OASL (11726364_x_at) / RFU SOX15 (11748057_x_at) / Fold change /veh SOX15 (11748057_x_at) / RFU CD79A (11719716_a_at) / Fold change /veh CD79A (11719716_a_at) / RFU HIST1H1D (11736915_at) / Fold change /veh HIST1H1D (11736915_at) / RFU CASKIN2 (11723855_a_at) / Fold change /veh CASKIN2 (11723855_a_at) / RFU LOC730098 (11760151_x_at) / Fold change /veh LOC730098 (11760151_x_at) / RFU OR4N2 (11742367_at) / Fold change /veh OR4N2 (11742367_at) / RFU PRRT2 (11749266_a_at) / Fold change /veh PRRT2 (11749266_a_at) / RFU SNX32 (11753110_a_at) / Fold change /veh SNX32 (11753110_a_at) / RFU CDHR5 (11726645_a_at) / Fold change /veh CDHR5 (11726645_a_at) / RFU RCAN1 (11760418_a_at) / Fold change /veh RCAN1 (11760418_a_at) / RFU FAM167A (11723789_a_at) / Fold change /veh FAM167A (11723789_a_at) / RFU FAM26E (11764081_at) / Fold change /veh FAM26E (11764081_at) / RFU ISYNA1 (11749810_s_at) / Fold change /veh ISYNA1 (11749810_s_at) / RFU ACY1 (11761880_at) / Fold change /veh ACY1 (11761880_at) / RFU 11764098_at / Fold change /veh 11764098_at / RFU SAMD14 (11745864_x_at) / Fold change /veh SAMD14 (11745864_x_at) / RFU NPB (11741838_a_at) / Fold change /veh NPB (11741838_a_at) / RFU TMPRSS6 (11731388_a_at) / Fold change /veh TMPRSS6 (11731388_a_at) / RFU KRTAP10-2 (11738614_at) / Fold change /veh KRTAP10-2 (11738614_at) / RFU ARHGAP8 /// PRR5-ARHGAP8 (11727945_x_at) / Fold change /veh ARHGAP8 /// PRR5-ARHGAP8 (11727945_x_at) / RFU KRTAP5-7 /// NADSYN1 (11734609_at) / Fold change /veh KRTAP5-7 /// NADSYN1 (11734609_at) / RFU RASL12 (11751679_a_at) / Fold change /veh RASL12 (11751679_a_at) / RFU CDKN2B (11736163_a_at) / Fold change /veh CDKN2B (11736163_a_at) / RFU PRF1 (11729649_at) / Fold change /veh PRF1 (11729649_at) / RFU, ZNF638 /// ZNF638-IT1 / Fold change vs veh, ZNF638 /// ZNF638-IT1 / RFU, PANK3 / Fold change vs veh, PANK3 / RFU, SH3YL1 / Fold change vs veh, SH3YL1 / RFU, ZEB2 / Fold change vs veh, ZEB2 / RFU, NRIP1 / Fold change vs veh, NRIP1 / RFU, PTTG1IP / Fold change vs veh, PTTG1IP / RFU, CAPN2 / Fold change vs veh, CAPN2 / RFU, MED14 / Fold change vs veh, MED14 / RFU, SNORA58 / Fold change vs veh, SNORA58 / RFU, C1orf63 / Fold change vs veh, C1orf63 / RFU, LRRFIP1 / Fold change vs veh, LRRFIP1 / RFU, NDUFAF7 / Fold change vs veh, NDUFAF7 / RFU, SLC12A2 / Fold change vs veh, SLC12A2 / RFU, IBTK / Fold change vs veh, IBTK / RFU, ESF1 / Fold change vs veh, ESF1 / Fold change vs veh, TMEM50B / RFU, TAOK1 / Fold change vs veh, TAOK1 / RFU, ACBD3 / Fold change vs veh, ACBD3 / RFU, TMA16 / Fold change vs veh, TMA16 / RFU, RWDD3 / Fold change vs veh, RWDD3 / RFU, BCAT1 / Fold change vs veh, BCAT1 / RFU, EDEM3 / Fold change vs veh, EDEM3 / RFU, TMEM33 / Fold change vs veh, TMEM33 / RFU, WDR75 / Fold change vs veh, WDR75 / RFU, AHCTF1 / Fold change vs veh, AHCTF1 / RFU, TFRC / Fold change vs veh, TFRC / RFU, ZDHHC17 / Fold change vs veh, ZDHHC17 / RFU, NOM1 / Fold change vs veh, NOM1 / RFU, ARL8B / Fold change vs veh, ARL8B / RFU, ZBTB11 / Fold change vs veh, ZBTB11 / RFU, TAMM41 / Fold change vs veh, TAMM41 / RFU, KIAA1704 /// LOC100996395 / Fold change vs veh, KIAA1704 /// LOC100996395 / RFU, ING1 / Fold change vs veh, ING1 / RFU, TRMT61B / Fold change vs veh, TRMT61B / RFU, FUBP3 / Fold change vs veh, FUBP3 / RFU, TP53 / Fold change vs veh, TP53 / RFU, TNKS2 / Fold change vs veh, TNKS2 / RFU, ZFP14 / Fold change vs veh, ZFP14 / RFU, ACTR2 / Fold change vs veh, ACTR2 / RFU, PPP3R1 / Fold change vs veh, PPP3R1 / RFU, PIK3R1 / Fold change vs veh, PIK3R1 / RFU, HNRNPA1 / Fold change vs veh, HNRNPA1 / RFU, RNF170 / Fold change vs veh, RNF170 / RFU, ZNF28 / Fold change vs veh, ZNF28 / RFU, RNGTT / Fold change vs veh, RNGTT / RFU, OGT / Fold change vs veh, OGT / RFU, BRD1 / Fold change vs veh, BRD1 / RFU, MARS / Fold change vs veh, MARS / RFU, ZNF655 / Fold change vs veh, ZNF655 / RFU, FAHD1 / Fold change vs veh, FAHD1 / RFU, BDP1 / Fold change vs veh, BDP1 / RFU, LRRCC1 / Fold change vs veh, LRRCC1 / RFU, ARID1A / Fold change vs veh, ARID1A / RFU, ZNF146 / Fold change vs veh, ZNF146 / RFU, ZNF330 / Fold change vs veh, ZNF330 / RFU, GPN3 / Fold change vs veh, GPN3 / RFU, C9orf123 / Fold change vs veh, C9orf123 / RFU, N4BP2L2 / Fold change vs veh, N4BP2L2 / RFU, ARFIP1 / Fold change vs veh, ARFIP1 / RFU, FAM179B / Fold change vs veh, FAM179B / RFU, BCL10 / Fold change vs veh, BCL10 / RFU, UHRF1BP1L / Fold change vs veh, UHRF1BP1L / RFU, BET1 / Fold change vs veh, BET1 / RFU, CNOT2 / Fold change vs veh, CNOT2 / RFU, ZNF268 / Fold change vs veh, ZNF268 / Fold change vs veh, ZNF507 / RFU, DGCR2 / Fold change vs veh, DGCR2 / RFU, WDSUB1 / Fold change vs veh, WDSUB1 / Fold change vs veh, HSP90B1 /// MIR3652 / RFU, ADSS / Fold change vs veh, ADSS / RFU, GK / Fold change vs veh, GK / RFU, ZNF148 / Fold change vs veh, ZNF148 / RFU, TAF9 / Fold change vs veh, TAF9 / RFU, SLC1A5 / Fold change vs veh, SLC1A5 / RFU, SLMO2 / Fold change vs veh, SLMO2 / RFU, ABCC4 / Fold change vs veh, ABCC4 / RFU, LOC101060439 /// RAP1B / Fold change vs veh, LOC101060439 /// RAP1B / RFU, RFX7 / Fold change vs veh, RFX7 / RFU, GTPBP10 / Fold change vs veh, GTPBP10 / RFU, CNEP1R1 / Fold change vs veh, CNEP1R1 / RFU, BIVM-ERCC5 /// ERCC5 / Fold change vs veh, BIVM-ERCC5 /// ERCC5 / RFU, ILF3 / Fold change vs veh, ILF3 / RFU 11762660_at / Fold change /veh 11762660_at / RFU VCAN (11757783_s_at) / Fold change /veh VCAN (11757783_s_at) / RFU DDX43 (11728927_at) / Fold change /veh DDX43 (11728927_at) / RFU KRT8 (11758188_x_at) / Fold change /veh KRT8 (11758188_x_at) / RFU NKD1 (11759106_at) / Fold change /veh NKD1 (11759106_at) / RFU SRD5A1 (11742802_a_at) / Fold change /veh SRD5A1 (11742802_a_at) / RFU TPSAB1 /// TPSB2 (11721975_s_at) / Fold change /veh TPSAB1 /// TPSB2 (11721975_s_at) / RFU GSTM3 (11746129_a_at) / Fold change /veh GSTM3 (11746129_a_at) / RFU IL23R (11737362_x_at) / Fold change /veh IL23R (11737362_x_at) / RFU TMEM51 (11727254_a_at) / Fold change /veh TMEM51 (11727254_a_at) / RFU PIWIL2 (11732686_x_at) / Fold change /veh PIWIL2 (11732686_x_at) / RFU ORM1 (11744905_x_at) / Fold change /veh ORM1 (11744905_x_at) / RFU CCDC152 (11743942_at) / Fold change /veh CCDC152 (11743942_at) / RFU ECM1 (11717891_a_at) / Fold change /veh ECM1 (11717891_a_at) / RFU IL23R (11748794_a_at) / Fold change /veh IL23R (11748794_a_at) / RFU TNFAIP8L3 (11732012_x_at) / Fold change /veh TNFAIP8L3 (11732012_x_at) / RFU MBOAT4 (11741988_at) / Fold change /veh MBOAT4 (11741988_at) / RFU 11764193_at / Fold change /veh 11764193_at / RFU TMEM53 (11763286_at) / Fold change /veh TMEM53 (11763286_at) / RFU MAGEB2 (11727129_at) / Fold change /veh MAGEB2 (11727129_at) / RFU TMEM200A (11744735_a_at) / Fold change /veh TMEM200A (11744735_a_at) / RFU CCDC152 (11751479_a_at) / Fold change /veh CCDC152 (11751479_a_at) / RFU FAM211A (11726209_a_at) / Fold change /veh FAM211A (11726209_a_at) / RFU RGS16 (11746705_a_at) / Fold change /veh RGS16 (11746705_a_at) / RFU VCAN (11755009_s_at) / Fold change /veh VCAN (11755009_s_at) / RFU RHOB (11743442_s_at) / Fold change /veh RHOB (11743442_s_at) / RFU RGS16 (11720943_a_at) / Fold change /veh RGS16 (11720943_a_at) / RFU RGS16 (11720944_at) / Fold change /veh RGS16 (11720944_at) / RFU, VPS4B / Fold change vs veh, VPS4B / RFU, CREB1 / Fold change vs veh, CREB1 / RFU, DNAJC13 / Fold change vs veh, DNAJC13 / RFU, GNAQ / Fold change vs veh, GNAQ / RFU, CDK5R1 / Fold change vs veh, CDK5R1 / RFU, ZRANB3 / Fold change vs veh, ZRANB3 / RFU, CUL4A / Fold change vs veh, CUL4A / RFU, CCNY / Fold change vs veh, CCNY / RFU, UFL1 / Fold change vs veh, UFL1 / RFU, COG3 / Fold change vs veh, COG3 / RFU, DIAPH2 / Fold change vs veh, DIAPH2 / RFU, SKA2 / Fold change vs veh, SKA2 / RFU, AFF3 / Fold change vs veh, AFF3 / RFU, LMF1 / Fold change vs veh, LMF1 / RFU, IPO11 / Fold change vs veh, IPO11 / RFU, DFFB / Fold change vs veh, DFFB / RFU, FOXP1 / Fold change vs veh, FOXP1 / RFU, CARD8 / Fold change vs veh, CARD8 / RFU, STRN3 / Fold change vs veh, STRN3 / RFU, ADK / Fold change vs veh, ADK / RFU, RASSF2 / Fold change vs veh, RASSF2 / RFU, WIPF1 / Fold change vs veh, WIPF1 / RFU, LARP1B / Fold change vs veh, LARP1B / RFU, RASA1 / Fold change vs veh, RASA1 / RFU, RB1 / Fold change vs veh, RB1 / RFU, PPFIA1 / Fold change vs veh, PPFIA1 / RFU, MAT2A / Fold change vs veh, MAT2A / RFU, CCT5 / Fold change vs veh, CCT5 / RFU, WDR92 / Fold change vs veh, WDR92 / RFU, CUX1 / Fold change vs veh, CUX1 / RFU, TTC7A / Fold change vs veh, TTC7A / RFU, TMEM135 / Fold change vs veh, TMEM135 / RFU, DEPTOR / Fold change vs veh, DEPTOR / RFU, CPM / Fold change vs veh, CPM / RFU, DNAJB6 / Fold change vs veh, DNAJB6 / RFU, CACNA2D3 / Fold change vs veh, CACNA2D3 / RFU, DTX4 / Fold change vs veh, DTX4 / RFU, TFCP2 / Fold change vs veh, TFCP2 / RFU, GMCL1 /// GMCL1P1 / Fold change vs veh, GMCL1 /// GMCL1P1 / RFU, AEBP2 / Fold change vs veh, AEBP2 / RFU, SNHG1 /// SNORD22 /// SNORD25 /// SNORD26 /// SNORD27 /// SNORD28 /// SNORD29 /// SNORD31 / Fold change vs veh, SNHG1 /// SNORD22 /// SNORD25 /// SNORD26 /// SNORD27 /// SNORD28 /// SNORD29 /// SNORD31 / Fold change (Aza/veh), C12orf56 (ProbeSet 11735607_a_at) / Fold change (ACY-1035/veh), C12orf56 (ProbeSet 11735607_a_at) / Fold change (Aza/veh), FGFR1OP (ProbeSet 11751329_s_at) / Fold change (ACY-1035/veh), FGFR1OP (ProbeSet 11751329_s_at) / Fold change (Aza/veh), VPS36 (ProbeSet 11739960_a_at) / Fold change (ACY-1035/veh), VPS36 (ProbeSet 11739960_a_at) / RFU SYPL1 (11715823_x_at) / Fold change /veh SYPL1 (11715823_x_at) / RFU IGFBP7 (11715501_s_at) / Fold change /veh IGFBP7 (11715501_s_at) / RFU REEP3 (11722064_at) / Fold change /veh REEP3 (11722064_at) / RFU IGLL1 (11728026_x_at) / Fold change /veh IGLL1 (11728026_x_at): dose or concentration left out as unconfirmed
Conditions: MV-4-11 cells, 48 hours

SMILES: Nc1ccc(-c2cccs2)cc1NC(=O)c1ccc2c(c1)cc(C1CC1)n2CCN1CCOCC1 [ACY-1035]
- RFU SPTSSB (11747773_x_at): 31.07 RFU
